In ChEMBL document CHEMBL4138146, “A Schmidt rearrangement-mediated synthesis of novel tetrahydro-benzo[1,4]diazepin-5-ones as potential anticancer and antiprotozoal agents” (Eur J Med Chem, 2017):

Assays:
Format in all cases: functional
[1] = system: UACC-257; assay: Growth inhibition of human UACC257 cells incubated for 48 hrs by sulforhodamine B assay; conditions: UACC-257, 48 h; for CC50: read-out: LC50 (the source's name)
[2] = system: Malme-3M; assay: Growth inhibition of human MALME-3M cells incubated for 48 hrs by sulforhodamine B assay
[3] = system: SK-MEL-28; assay: Growth inhibition of human SK-MEL-28 cells incubated for 48 hrs by sulforhodamine B assay; conditions: SK-MEL-28, 48 h; for CC50: read-out: LC50 (the source's name)
[4] = system: RPMI-8226; assay: Growth inhibition of human RPMI8226 cells incubated for 48 hrs by sulforhodamine B assay; conditions: RPMI-8226, 48 h; for CC50: read-out: LC50 (the source's name)
[5] = system: T47D; assay: Growth inhibition of human T47D cells incubated for 48 hrs by sulforhodamine B assay
[6] = system: HOP-62; assay: Growth inhibition of human HOP62 cells incubated for 48 hrs by sulforhodamine B assay; conditions: HOP-62, 48 h
[7] = system: HCC 2998; assay: Growth inhibition of human HCC2998 cells incubated for 48 hrs by sulforhodamine B assay; conditions: HCC 2998, 48 h
[8] = system: A549; assay: Growth inhibition of human A549/ATCC cells incubated for 48 hrs by sulforhodamine B assay; conditions: A549, 48 h
[9] = system: CCRF-CEM; assay: Growth inhibition of human CCRF-CEM cells incubated for 48 hrs by sulforhodamine B assay
[10] = system: SNB-19; assay: Growth inhibition of human SNB19 cells incubated for 48 hrs by sulforhodamine B assay; conditions: SNB-19, 48 h
[11] = system: SF-539; assay: Growth inhibition of human SF539 cells incubated for 48 hrs by sulforhodamine B assay; conditions: SF-539, 48 h
[12] = system: CAKI-1; assay: Growth inhibition of human Caki1 cells incubated for 48 hrs by sulforhodamine B assay; conditions: CAKI-1, 48 h; for CC50: read-out: LC50 (the source's name)
[13] = system: U-251; assay: Growth inhibition of human U251 cells incubated for 48 hrs by sulforhodamine B assay; conditions: U-251, 48 h
[14] = system: A498; assay: Growth inhibition of human A498 cells incubated for 48 hrs by sulforhodamine B assay; conditions: A498, 48 h; for CC50: read-out: LC50 (the source's name)
[15] = system: SK-MEL-2; assay: Growth inhibition of human SK-MEL-2 cells incubated for 48 hrs by sulforhodamine B assay; conditions: SK-MEL-2, 48 h; for CC50: read-out: LC50 (the source's name)
[16] = system: PC-3; assay: Growth inhibition of human PC3 cells incubated for 48 hrs by sulforhodamine B assay; conditions: PC-3, 48 h
[17] = system: RXF 393; assay: Growth inhibition of human RXF393 cells incubated for 48 hrs by sulforhodamine B assay; conditions: RXF 393, 48 h
[18] = system: OVCAR-8; assay: Growth inhibition of human OVCAR8 cells incubated for 48 hrs by sulforhodamine B assay; conditions: OVCAR-8, 48 h
[19] = system: HOP-92; assay: Growth inhibition of human HOP92 cells incubated for 48 hrs by sulforhodamine B assay; conditions: HOP-92, 48 h
[20] = system: Hs-578T; assay: Growth inhibition of human Hs 578T cells assessed as cell growth at 10^-7 M incubated for 48 hrs by sulforhodamine B assay relative to control; conditions: read-out: Activity
[21] = system: PC-3; assay: Growth inhibition of human PC3 cells assessed as cell growth at 10^-4 M incubated for 48 hrs by sulforhodamine B assay relative to control; conditions: PC-3, 48 h, read-out: Activity
[22] = system: HT-29; assay: Growth inhibition of human HT-29 cells assessed as cell growth at 10^-8 M incubated for 48 hrs by sulforhodamine B assay relative to control; conditions: HT-29, 48 h, read-out: Activity
[23] = system: SNB-75; assay: Growth inhibition of human SNB75 cells assessed as cell growth at 10^-4 M incubated for 48 hrs by sulforhodamine B assay relative to control; conditions: SNB-75, 48 h, read-out: Activity
[24] = system: TK-10; assay: Growth inhibition of human TK10 cells assessed as cell growth at 10^-7 M incubated for 48 hrs by sulforhodamine B assay relative to control; conditions: TK-10, 48 h, read-out: Activity
[25] = system: ACHN; assay: Growth inhibition of human ACHN cells assessed as cell growth at 10^-5 M incubated for 48 hrs by sulforhodamine B assay relative to control; conditions: read-out: Activity
[26] = system: CCRF-CEM; assay: Growth inhibition of human CCRF-CEM cells assessed as cell growth at 10^-5 M incubated for 48 hrs by sulforhodamine B assay relative to control; conditions: read-out: Activity
[27] = system: MDA-MB-231; assay: Growth inhibition of human MDA-MB-231 cells assessed as cell growth at 10^-4 M incubated for 48 hrs by sulforhodamine B assay relative to control; conditions: MDA-MB-231, 48 h, read-out: Activity
[28] = system: HCT-116; assay: Growth inhibition of human HCT116 cells assessed as cell growth at 10^-8 M incubated for 48 hrs by sulforhodamine B assay relative to control; conditions: HCT-116, 48 h, read-out: Activity
[29] = system: K562; assay: Growth inhibition of human K562 cells assessed as cell growth at 10^-7 M incubated for 48 hrs by sulforhodamine B assay relative to control; conditions: K562, 48 h, read-out: Activity
[30] = system: NCI-H226; assay: Growth inhibition of human NCI-H226 cells assessed as cell growth at 10^-6 M incubated for 48 hrs by sulforhodamine B assay relative to control; conditions: NCI-H226, 48 h, read-out: Activity
[31] = system: OVCAR-3; assay: Growth inhibition of human OVCAR3 cells assessed as cell growth at 10^-5 M incubated for 48 hrs by sulforhodamine B assay relative to control; conditions: OVCAR-3, 48 h, read-out: Activity
[32] = system: HL-60(TB); assay: Growth inhibition of human HL-60(TB) cells assessed as cell growth at 10^-5 M incubated for 48 hrs by sulforhodamine B assay relative to control; conditions: HL-60, 48 h, read-out: Activity
[33] = system: TK-10; assay: Growth inhibition of human TK10 cells assessed as cell growth at 10^-4 M incubated for 48 hrs by sulforhodamine B assay relative to control; conditions: TK-10, 48 h, read-out: Activity
[34] = system: BT-549; assay: Growth inhibition of human BT549 cells assessed as cell growth at 10^-5 M incubated for 48 hrs by sulforhodamine B assay relative to control; conditions: BT-549, 48 h, read-out: Activity
[35] = system: ACHN; assay: Growth inhibition of human ACHN cells assessed as cell growth at 10^-6 M incubated for 48 hrs by sulforhodamine B assay relative to control; conditions: read-out: Activity
[36] = system: SK-MEL-2; assay: Growth inhibition of human SK-MEL-2 cells assessed as cell growth at 10^-5 M incubated for 48 hrs by sulforhodamine B assay relative to control; conditions: SK-MEL-2, 48 h, read-out: Activity
[37] = read-out: LC50 (the source's name)

Molecule COc1cccc2c1C(=O)c1c(O)c3c(c(O)c1C2=O)C[C@@](O)(C(=O)CO)C[C@@H]3O[C@H]1C[C@H](N)[C@H](O)[C@H](C)O1 [DOXORUBICIN] has a GI50 [1] of 0.12 µM, a CC50 [1] of 0.74 µM and a GI50 [2] of 0.12 µM. The GI50 [3] was 0.08 µM, the CC50 [3] was 0.49 µM and the GI50 [4] was 0.08 µM. For the same molecule, the CC50 [4] was 100 µM, the GI50 [5] was 0.06 µM and the GI50 [6] was 0.07 µM. The GI50 [7] was 0.26 µM, the GI50 [8] was 0.06 µM and the GI50 [9] was 0.08 µM. For the same molecule, the GI50 [10] was 0.04 µM, the GI50 [11] was 0.12 µM and the GI50 [12] was 0.95 µM. The CC50 [12] was 100 µM, the GI50 [13] was 0.04 µM and the GI50 [14] was 0.1 µM. The CC50 [14] was 1.9 µM, the GI50 [15] was 0.21 µM and the CC50 [15] was 15.9 µM. It also gave a GI50 [16] of 0.32 µM, a GI50 [17] of 0.1 µM and a GI50 [18] of 0.1 µM. It also gave a GI50 [19] of 0.1 µM.

CCCCOc1nc2ccccc2cc1C1CNC(=O)c2ccccc2N1 (centres undefined) showed a GI50 [1] of 8.16 µM, a TGI [1] of over 100 µM and a CC50 [1] of over 100 µM. For the same molecule, the GI50 [2] was 3.58 µM, the TGI [2] was 27 µM and the CC50 [2, 37] was 92 µM. It also gave a GI50 [3] of 5.89 µM, a TGI [3] of 27.3 µM and a CC50 [3] of 86.1 µM. For the same molecule, the GI50 [4] was 2.86 µM, the TGI [4] was 25.1 µM and the CC50 [4] was over 100 µM. For the same molecule, the growth at 0.1 µM [20] was 97%, the GI50 [5] was 5.32 µM and the TGI [5] was over 100 µM. For the same molecule, the CC50 [5, 37] was over 100 µM, the growth at 100 µM [21] was -63% and the growth at 0.01 µM [22] was 94%. For the same molecule, the growth at 100 µM [23] was -79%, the GI50 [6] was 2.99 µM and the LC50 [6] was 76.7 µM. For the same molecule, the TGI [6] was 17.4 µM, the GI50 [7] was 3.58 µM and the TGI [7] was 26.7 µM. It also gave a CC50 [7, 37] of over 100 µM, a GI50 [8] of 3.64 µM and an LC50 [8] of 53 µM. For the same molecule, the TGI [8] was 14.5 µM, the growth at 0.1 µM [24] was 83% and the growth at 10 µM [25] was 22%. It also gave a growth at 10 µM [26] of 11%, a growth at 100 µM [27] of -53% and a GI50 [9] of 2.95 µM. It also gave an LC50 (concentration killing 50% of cells) [9] of over 100 µM, a TGI [9] of 24.9 µM and a growth at 0.01 µM [28] of 101%. The GI50 [10] was 6.13 µM, the TGI [10] was 75.3 µM and the CC50 [10, 37] was over 100 µM. It also gave a growth at 0.1 µM [29] of 95%, a GI50 [11] of 2.29 µM and a TGI [11] of 7.47 µM. For the same molecule, the CC50 [11, 37] was 44.9 µM, the growth at 1 µM [30] was 92% and the GI50 [12] was 2.83 µM. It also gave a TGI [12] of 34.4 µM, a CC50 [12] of over 100 µM and a GI50 [13] of 3.03 µM. For the same molecule, the TGI [13] was 13.7 µM, the CC50 [13, 37] was 50.1 µM and the growth at 10 µM [31] was -53%. It also gave a GI50 [14] of 0.39 µM, a TGI [14] of 4.7 µM and a CC50 [14] of over 100 µM. The GI50 [15] was 4.79 µM, the TGI [15] was 48.5 µM and the CC50 [15] was over 100 µM. It also gave a growth at 10 µM [32] of -28%, a growth at 100 µM [33] of -62% and a GI50 [16] of 3.06 µM. For the same molecule, the TGI [16] was 13.4 µM, the CC50 [16, 37] was 66.9 µM and the growth at 10 µM [34] was 36%. The GI50 [17] was 2.5 µM, the TGI [17] was 12.1 µM and the CC50 [17, 37] was 75.4 µM. For the same molecule, the growth at 1 µM [35] was 91%, the growth at 10 µM [36] was 33% and the GI50 [18] was 3.45 µM. The TGI [18] was 16.1 µM, the CC50 [18, 37] was over 100 µM and the GI50 [19] was 1.92 µM. For the same molecule, the TGI [19] was 22.6 µM and the CC50 [19, 37] was over 100 µM.
